The structures appear in SMILES notation.

T1 sequence (P46937 whole entry): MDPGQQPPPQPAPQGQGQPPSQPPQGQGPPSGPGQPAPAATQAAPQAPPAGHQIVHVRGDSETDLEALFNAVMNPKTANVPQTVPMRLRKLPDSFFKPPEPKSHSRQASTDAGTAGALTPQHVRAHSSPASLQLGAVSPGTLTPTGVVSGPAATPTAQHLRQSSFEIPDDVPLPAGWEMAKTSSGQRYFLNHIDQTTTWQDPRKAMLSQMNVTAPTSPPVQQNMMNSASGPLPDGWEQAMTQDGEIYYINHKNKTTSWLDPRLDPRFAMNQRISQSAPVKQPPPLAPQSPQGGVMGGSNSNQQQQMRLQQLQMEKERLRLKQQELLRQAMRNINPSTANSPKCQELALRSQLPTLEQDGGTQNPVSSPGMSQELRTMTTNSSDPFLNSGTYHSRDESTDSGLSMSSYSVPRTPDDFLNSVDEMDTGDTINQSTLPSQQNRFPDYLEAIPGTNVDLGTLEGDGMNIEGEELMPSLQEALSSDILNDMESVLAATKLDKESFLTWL

The first experiment addresses T1, Transcriptional coactivator YAP1 (Homo sapiens, UniProt P46937). As to the kind of experiment: Inhibition of YAP (unknown origin) incubated for 24 hrs by Promega Dual-Luciferase Reporter Assay.
`CNS(=O)(=O)c1ccc(Nc2ccc(C(F)(F)F)cc2)c(-c2cn(C)cn2)c1` showed an IC50 of 1 nM.

On to `COC(=O)c1cc(S(N)(=O)=O)ccc1NC1CCCCC1`, for which the midpoint of inhibition, the IC50, lay at 454 nM.

Compound `CC(NC(=O)c1cc2nc(N(C)C)n(-c3ccc(Br)cc3)c2s1)c1ccccn1` (stereo unspecified) yielded an IC50 of 391 nM.

Another experiment addresses T1, Transcriptional coactivator YAP1. As to the kind of experiment: Inhibition of YAP in HEK293T cells incubated for 24 hrs by Promega Dual-Luciferase Reporter Assay.
`CC(C)NC(=O)c1ccc2c(Oc3cccc(Cl)c3)cccc2c1` [5-(3-chlorophenoxy)-N-isopropyl-2-naphthamide] displayed an IC50 of less than 100 nM.

As for `N#CCNC(=O)c1ccc2c(Oc3ccc(C(F)(F)F)cc3)cccc2c1` [N-(cyanomethyl)-5-(4-(trifluoromethyl)phenoxy)-2-naphthamid], the IC50 is less than 100 nM.

For `CS(=O)(=O)NC(=O)c1ccc2c(Oc3ccc(C(F)(F)F)cc3)cccc2c1` [N-(methylsulfonyl)-5-(4-(trifluoromethyl)phenoxy)-2-naphthamide], the IC50 was less than 100 nM.

Values taken from BindingDB's records for doi:10.1016/j.ejmech.2022.114684 (Shanghai Institute of Materia Medica, 2022).
